Measurements as given in ChEMBL document CHEMBL5154938, “A Small-Molecule Oral Agonist of the Human Glucagon-like Peptide-1 Receptor” (J Med Chem, 2022).
The source made the active and inactive calls. No cut-off for these calls is given here.

Experiments:
[1] = target: T1, Glucagon-like peptide 1 receptor (Homo sapiens, UniProt P43220); experiment: Agonist activity at human GLP-1R expressed in CHO-K1 cells assessed as cAMP accumulation by measuring maximum efficacy at 20 uM incubated for 30 mins in presence of BETP by BETP sensitized time-resolved fluorescence assay relative to control; format: functional, cell-based; details: filed as agonist
T1 sequence (P43220 whole entry): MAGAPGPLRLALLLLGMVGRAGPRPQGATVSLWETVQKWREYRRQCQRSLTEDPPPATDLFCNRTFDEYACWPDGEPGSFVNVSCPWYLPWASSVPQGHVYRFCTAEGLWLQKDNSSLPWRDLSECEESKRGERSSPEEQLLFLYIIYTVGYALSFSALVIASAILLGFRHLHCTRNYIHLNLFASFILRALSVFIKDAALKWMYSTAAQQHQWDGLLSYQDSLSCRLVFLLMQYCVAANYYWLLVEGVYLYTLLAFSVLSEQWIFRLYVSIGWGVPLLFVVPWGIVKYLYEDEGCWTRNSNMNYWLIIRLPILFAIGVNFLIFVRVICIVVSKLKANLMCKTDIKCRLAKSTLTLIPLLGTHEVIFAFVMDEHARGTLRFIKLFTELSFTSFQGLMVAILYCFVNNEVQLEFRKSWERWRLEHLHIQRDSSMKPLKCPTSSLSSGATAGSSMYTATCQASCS

[2] = target: T1, Glucagon-like peptide 1 receptor; experiment: Agonist activity at human GLP-1R expressed in PathHunter CHO-K1 GLP1R beta-arrestin-2 cell assessed as induction of beta-arrestin 2 recruitment incubated for 90 mins in presence of BETP by PathHunter assay; format: functional, cell-based
[3] = target: T1, Glucagon-like peptide 1 receptor; experiment: Agonist activity at human GLP-1R expressed in PathHunter CHO-K1 GLP1R beta-arrestin-2 cells assessed as induction of beta-arrestin 2 recruitment by measuring maximum efficacy incubated for 90 mins in presence of BETP by PathHunter assay relative to control; format: functional, cell-based
[4] = Lipophilicity, logD of compound at pH 7.4 by shake-flash method; format: physicochemical; details: buffer
[5] = target: Voltage-gated inwardly rectifying potassium channel KCNH2 (Homo sapiens, UniProt Q12809); experiment: Inhibition of hERG ion channel by patch-clamp method; format: toxicity
Sequence of Voltage-gated inwardly rectifying potassium channel KCNH2 (Q12809 whole entry): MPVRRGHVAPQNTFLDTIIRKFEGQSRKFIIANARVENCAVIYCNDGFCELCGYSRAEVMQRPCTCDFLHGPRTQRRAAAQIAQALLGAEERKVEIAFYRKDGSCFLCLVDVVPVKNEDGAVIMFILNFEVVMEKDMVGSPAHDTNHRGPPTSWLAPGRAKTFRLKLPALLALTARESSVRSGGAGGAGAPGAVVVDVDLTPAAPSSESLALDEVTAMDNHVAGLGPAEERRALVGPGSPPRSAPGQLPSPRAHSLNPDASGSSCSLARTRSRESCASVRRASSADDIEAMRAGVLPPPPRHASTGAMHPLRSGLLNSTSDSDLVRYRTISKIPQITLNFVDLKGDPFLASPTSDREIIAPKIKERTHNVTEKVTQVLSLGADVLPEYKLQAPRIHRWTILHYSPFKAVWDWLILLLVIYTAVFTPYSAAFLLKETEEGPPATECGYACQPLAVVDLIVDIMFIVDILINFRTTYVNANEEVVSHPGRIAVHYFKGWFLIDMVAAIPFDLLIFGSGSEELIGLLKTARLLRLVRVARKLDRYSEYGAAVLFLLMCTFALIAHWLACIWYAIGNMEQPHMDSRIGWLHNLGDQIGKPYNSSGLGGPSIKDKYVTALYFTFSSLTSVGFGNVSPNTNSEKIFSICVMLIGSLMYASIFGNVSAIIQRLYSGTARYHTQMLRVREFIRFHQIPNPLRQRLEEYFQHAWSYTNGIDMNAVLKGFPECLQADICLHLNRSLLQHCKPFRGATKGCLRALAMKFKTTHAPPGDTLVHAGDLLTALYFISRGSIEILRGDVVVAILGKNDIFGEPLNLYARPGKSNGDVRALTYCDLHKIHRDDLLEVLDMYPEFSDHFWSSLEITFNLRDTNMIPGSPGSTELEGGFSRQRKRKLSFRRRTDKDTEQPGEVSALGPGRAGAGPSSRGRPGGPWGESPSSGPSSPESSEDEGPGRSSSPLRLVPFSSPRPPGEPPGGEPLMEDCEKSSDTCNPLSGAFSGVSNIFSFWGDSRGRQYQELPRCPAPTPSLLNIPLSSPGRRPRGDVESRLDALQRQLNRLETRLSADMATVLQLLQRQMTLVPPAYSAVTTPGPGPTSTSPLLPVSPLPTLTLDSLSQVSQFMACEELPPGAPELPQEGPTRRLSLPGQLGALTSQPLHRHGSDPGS

[6] = target: T1, Glucagon-like peptide 1 receptor
[7] = target: T1, Glucagon-like peptide 1 receptor; remark: listed apart in the source
[8] = target: T1, Glucagon-like peptide 1 receptor; remark: listed apart in the source
[9] = target: T1, Glucagon-like peptide 1 receptor; remark: listed apart in the source
[10] = in vitro; details: human, hepatocytes
[11] = Lipophilicity, logD of compound at pH 7.4 by RP-HPLC analysis; format: physicochemical; details: buffer
[12] = Cmax in Wistar Han rat at 100 mg/kg, po measured upto 24 hrs by LC-MS/MS analysis; format: ADME, organism-based; set-up: time < 24 hrs, dose 100 mg/kg, route po; details: in vivo
[13] = Metabolic stability in human liver microsomes assessed as intrinsic clearance in the presence of NADPH by HPLC-MS/MS analysis; format: ADME, Microsome
[14] = Activation of rabbit GLP-1R expressed in CHO cells assessed as increase in cAMP accumulation; format: cell-based; details: Oryctolagus cuniculus
[15] = Cmax in Wistar Han rat at 5 mg/kg, po measured upto 24 hrs by LC-MS/MS analysis; format: ADME, organism-based; set-up: dose 5 mg/kg, time < 24 hrs, route po; details: in vivo
[16] = tested on: CHO; experiment: Activation of mouse GLP-1R S33W mutant expressed in CHO cells assessed as increase in cAMP accumulation; format: cell-based; details: filed as activator
[17] = Cmax in cynomologus monkey at 5 mg/kg, po measured upto 24 hrs by LC-MS/MS analysis; format: ADME, organism-based, Macaca fascicularis; set-up: time < 24 hrs, dose 5 mg/kg, route po; details: cynomolgus monkey, in vivo
[18] = Cmax in cynomologus monkey at 100 mg/kg, po measured upto 24 hrs by LC-MS/MS analysis; format: ADME, organism-based, Macaca fascicularis; set-up: time < 24 hrs, dose 100 mg/kg, route po; details: cynomolgus monkey, in vivo
[19] = AUC(0 to infinity) in cynomologus monkey at 1 mg/kg, iv measured upto 24 hrs by LC-MS/MS analysis; format: ADME, organism-based, Macaca fascicularis; set-up: dose 1 mg/kg, time < 24 hrs, route iv; details: cynomolgus monkey, in vivo
[20] = AUC(0 to infinity) in cynomologus monkey at 5 mg/kg, po measured upto 24 hrs by LC-MS/MS analysis; format: ADME, organism-based, Macaca fascicularis; set-up: time < 24 hrs, dose 5 mg/kg, route po; details: cynomolgus monkey, in vivo
[21] = AUC(0 to infinity) in cynomologus monkey at 100 mg/kg, po measured upto 24 hrs by LC-MS/MS analysis; format: ADME, organism-based, Macaca fascicularis; set-up: dose 100 mg/kg, time < 24 hrs, route po; details: cynomolgus monkey, in vivo
[22] = AUC (0 to infinity) in Wistar Han rat at 1 mg/kg, iv measured upto 24 hrs by LC-MS/MS analysis; format: ADME, organism-based; set-up: time < 24 hrs, dose 1 mg/kg, route iv; details: in vivo
[23] = AUC (0 to infinity) in Wistar Han rat at 5 mg/kg, po measured upto 24 hrs by LC-MS/MS analysis; format: ADME, organism-based; set-up: dose 5 mg/kg, time < 24 hrs, route po; details: in vivo
[24] = AUC (0 to infinity) in Wistar Han rat at 100 mg/kg, po measured upto 24 hrs by LC-MS/MS analysis; format: ADME, organism-based; set-up: dose 100 mg/kg, time < 24 hrs, route po; details: in vivo
[25] = Volume of distribution at steady state in Wistar Han rat at 1 mg/kg, iv measured upto 24 hrs by LC-MS/MS analysis; format: ADME, organism-based; details: in vivo
[26] = Volume of distribution at steady state in cynomologus monkey at 1 mg/kg, iv measured upto 24 hrs by LC-MS/MS analysis; format: ADME, organism-based, Macaca fascicularis; details: cynomolgus monkey, in vivo
[27] = Oral bioavailability in cynomologus monkey at 5 mg/kg measured upto 24 hrs by LC-MS/MS analysis; format: ADME, organism-based, Macaca fascicularis; details: cynomolgus monkey, in vivo
[28] = Oral bioavailability in cynomologus monkey at 100 mg/kg measured upto 24 hrs by LC-MS/MS analysis; format: ADME, organism-based, Macaca fascicularis; details: cynomolgus monkey, in vivo
[29] = Oral bioavailability in Wistar Han rat at 5 mg/kg measured upto 24 hrs by LC-MS/MS analysis; format: ADME, organism-based; details: in vivo
[30] = Oral bioavailability in Wistar Han rat at 100 mg/kg measured upto 24 hrs by LC-MS/MS analysis; format: ADME, organism-based; details: in vivo
[31] = tested on: Macaca fascicularis; experiment: Induction of insulin secretion in cynomologus monkey assessed as induction of glucose-induced insulin secretion at 1.8 mg, iv dosed once daily by IVGTT; format: functional, organism-based; details: DDE = dose-dependent effect
[32] = tested on: Macaca fascicularis; experiment: Induction of insulin secretion in cynomologus monkey assessed as glucose disappearance at 1.8 mg, iv dosed once daily by IVGTT assay; format: functional, organism-based
[33] = tested on: Cynomolgus monkey; experiment: Reduction in food intake in cynomologus monkey at 2.9 mg/kg, po administered once daily for 2 days relative to control; format: functional, organism-based; details: Macaca fascicularis, time 2.0 day
[34] = target: T1, Glucagon-like peptide 1 receptor; experiment: Agonist activity at FAP-tagged human GLP-1R expressed in HEK293 cells assessed as receptor internalization measured after 30 mins by nuclear staining based confocal microscopic analysis; format: functional, cell-based; details: filed as agonist
[35] = target: T1, Glucagon-like peptide 1 receptor; remark: listed apart in the source
[36] = target: T1, Glucagon-like peptide 1 receptor; remark: listed apart in the source
[37] = target: T1, Glucagon-like peptide 1 receptor; experiment: biochemical

Structure (SMILES): Cn1c(CN2CCC(c3cccc(OCc4ccc(Cl)cc4F)n3)CC2)nc2ccc(C(=O)O)nc21
- Emax [1]: 84%
- EC50 [2]: 2.8 µM
- Emax ([3]; filed as agonist): 99%
- logD [4]: 2
- IC50 [5]: > 100 µM
- EC50 [6]: 0.0067 µM
- EC50 [7]: 0.095 µM
- EC50 [8]: 2.1 µM
- EC50 [9]: > 30 µM
- hepatocyte CLint [10]: 31 µL/min/1e6 cells

Structure (SMILES): Cn1c(CN2CCC(c3nc(OCc4ccc(Cl)cc4F)ncc3F)CC2)nc2ccccc21
- logD [11]: 5.6
- IC50 [5]: 5.4 µM
- EC50 [6]: > 9.9 µM
- EC50 [7]: > 20 µM
- EC50 [8]: > 20 µM
- hepatocyte CLint [10]: 48 µL/min/1e6 cells

Structure (SMILES): N#Cc1ccc(COc2cccc(C3CCN(Cc4nc5ccc(C(=O)O)cc5n4C[C@@H]4CCO4)CC3)n2)c(F)c1 [DANUGLIPRON]
- Cmax [12]: 2820 ng/mL
- Emax [1]: 110%
- logD [4]: 1.8
- CLH [13]: < 10 µL/min
- IC50 [5]: 4.3 µM
- EC50 [14]: > 20 µM
- Cmax [15]: 141 ng/mL
- Activity [16]: Active
- Cmax [17]: 68.7 ng/mL
- Cmax [18]: 1150 ng/mL
- AUC [19]: 1240 ng·h/mL
- AUC [20]: 303 ng·h/mL
- AUC [21]: 11000 ng·h/mL
- AUC [22]: 296 ng·h/mL
- AUC [23]: 168 ng·h/mL
- AUC [24]: 11900 ng·h/mL
- Vdss [25]: 0.86 L/kg
- Vdss [26]: 0.266 L/kg
- bioavailability [27]: 5%
- bioavailability [28]: 9%
- bioavailability [29]: 11%
- bioavailability [30]: 39%
- Activity [31]: Dde
- Activity [32]: Active
- Activity [33]: Active
- Activity [34]: Active
- hepatocyte CLint [10]: 6.9 µL/min/1e6 cells

Structure (SMILES): Cn1c(CN2CCC(c3cccc(OCc4ccc(Cl)cc4F)n3)CC2)nc2ccncc21
- Emax [1]: 86%
- EC50 [2]: 9.6 µM
- Emax ([3]; filed as agonist): 100%
- logD [11]: 5.7
- IC50 [5]: 5.6 µM
- EC50 [6]: 0.077 µM
- EC50 [7]: 2.6 µM
- EC50 [8]: > 20 µM
- EC50 [9]: > 30 µM
- hepatocyte CLint [10]: 55 µL/min/1e6 cells

Structure (SMILES): CCn1cncc1Cn1c(CN2CCC(c3cccc(OCc4ccc(F)cc4F)n3)CC2)nc2ccc(C(=O)O)cc21
- EC50 [7]: 0.00075 µM
- EC50 [8]: 0.0086 µM
- EC50 [35]: 0.25 µM
- EC50 [36]: 0.61 µM
- Ki [37]: 0.051 µM

Structure (SMILES): Cn1c(CN2CCC(c3cccc(OCc4ccc(Cl)cc4F)n3)CC2)nc2nccc(NCC(=O)O)c21
- Emax [1]: 90%
- EC50 [2]: 1.5 µM
- Emax [3]: 23%
- logD [4]: 2.3
- IC50 [5]: > 10 µM
- EC50 [6]: 0.044 µM
- EC50 [7]: 4.6 µM
- EC50 [8]: > 20 µM
- EC50 [9]: > 30 µM
- hepatocyte CLint [10]: 37 µL/min/1e6 cells
